In the supplement of paper PMC10307832:

What was measured:
Assay in all cases: relative viability (nuclei count vs DMSO), 5 days (fraction); higher = more cells survive
NCI-H2023 = tested on: NCI-H2023
How it was run: (§1)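 Five library-drug doses in √10 steps were combined with a fixed anchor-drug dose, or a single drug was given alone, by pin tool to lung cancer cell lines in 1536-well plates the day after seeding. Nuclei were stained and counted after 5 days. Relative viability is the nuclei count in treated wells over that in vehicle wells, taken as the median of duplicate plates.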

NCI-H1993 = tested on: NCI-H1993
How it was run: as §1

NCI-H650 = tested on: NCI-H650
How it was run: as §1

NCI-H1395 = tested on: NCI-H1395
How it was run: as §1

LOU-NH91 = tested on: LOU-NH91
How it was run: as §1

NCI-H1975 = tested on: NCI-H1975
How it was run: as §1

NCI-H2228 = tested on: NCI-H2228
How it was run: as §1

NCI-H2405 = tested on: NCI-H2405
How it was run: as §1

LU99A = tested on: LU99A
How it was run: as §1

NCI-H460 = tested on: NCI-H460
How it was run: as §1

SW 1573 = tested on: SW 1573
How it was run: as §1

NCI-H1915 = tested on: NCI-H1915
How it was run: as §1

A-427 = tested on: A-427
How it was run: as §1

HARA = tested on: HARA
How it was run: as §1

RERF-LC-KJ = tested on: RERF-LC-KJ
How it was run: as §1

EKVX = tested on: EKVX
How it was run: as §1

BEN = tested on: BEN
How it was run: as §1

NCI-H1793 = tested on: NCI-H1793
How it was run: as §1

COR-L23 = tested on: COR-L23
How it was run: as §1

NCI-H838 = tested on: NCI-H838
How it was run: as §1

NCI-H1650 = tested on: NCI-H1650
How it was run: as §1

NCI-H1666 = tested on: NCI-H1666
How it was run: as §1

Q: Which results are given for `COCC1(CO)C(=O)C2CCN1CC2` (stereo not drawn) [PRIMA-1MET] + COc1cc2c(Oc3ccc(NC(=O)C4(C(=O)Nc5ccc(F)cc5)CC4)cc3F)ccnc2cc1OCCCN1CCOCC1 [Foretinib] (partner 0.25 µM)?
A: relative viability (NCI-H2023; first compound 0.2 µM): 1.03; relative viability (NCI-H2023; first compound 0.6325 µM): 0.781; relative viability (NCI-H2023; first compound 2 µM): 0.827; relative viability (NCI-H2023; first compound 6.325 µM): 0.915; relative viability (NCI-H2023; first compound 20 µM): 0.813; relative viability (NCI-H1993; first compound 0.2 µM): 0.875; relative viability (NCI-H1993; first compound 0.6325 µM): 0.767; relative viability (NCI-H1993; first compound 2 µM): 0.657; relative viability (NCI-H1993; first compound 6.325 µM): 0.803; relative viability (NCI-H1993; first compound 20 µM): 0.754; relative viability (NCI-H650; first compound 0.2 µM): 1.34; relative viability (NCI-H650; first compound 2 µM): 0.917; relative viability (NCI-H650; first compound 6.325 µM): 1.1; relative viability (NCI-H650; first compound 20 µM): 0.644; relative viability (NCI-H1395; first compound 0.2 µM): 1.03; relative viability (NCI-H1395; first compound 0.6325 µM): 0.652; relative viability (NCI-H1395; first compound 2 µM): 1.05; relative viability (NCI-H1395; first compound 6.325 µM): 1; relative viability (NCI-H1395; first compound 20 µM): 0.971; relative viability (LOU-NH91; first compound 0.2 µM): 1.04; relative viability (LOU-NH91; first compound 0.6325 µM): 0.992; relative viability (LOU-NH91; first compound 2 µM): 0.861; relative viability (LOU-NH91; first compound 6.325 µM): 1; relative viability (LOU-NH91; first compound 20 µM): 0.8; relative viability (NCI-H1975; first compound 0.2 µM): 1.07; relative viability (NCI-H1975; first compound 0.6325 µM): 0.958; relative viability (NCI-H1975; first compound 2 µM): 0.916; relative viability (NCI-H1975; first compound 6.325 µM): 1.01; relative viability (NCI-H1975; first compound 20 µM): 0.626; relative viability (NCI-H2228; first compound 0.2 µM): 0.973; relative viability (NCI-H2228; first compound 0.6325 µM): 0.938; relative viability (NCI-H2228; first compound 2 µM): 0.87; relative viability (NCI-H2228; first compound 6.325 µM): 0.952; relative viability (NCI-H2228; first compound 20 µM): 0.0309; relative viability (NCI-H2405; first compound 0.2 µM): 1.03; relative viability (NCI-H2405; first compound 0.6325 µM): 1.03; relative viability (NCI-H2405; first compound 6.325 µM): 1.03; relative viability (NCI-H2405; first compound 20 µM): 0.506; relative viability (LU99A; first compound 0.2 µM): 0.84; relative viability (LU99A; first compound 0.6325 µM): 0.806; relative viability (LU99A; first compound 2 µM): 0.813; relative viability (LU99A; first compound 6.325 µM): 0.913; relative viability (LU99A; first compound 20 µM): 0.394; relative viability (NCI-H460; first compound 0.2 µM): 1.08; relative viability (NCI-H460; first compound 0.6325 µM): 0.949; relative viability (NCI-H460; first compound 2 µM): 0.963; relative viability (NCI-H460; first compound 6.325 µM): 0.944; relative viability (NCI-H460; first compound 20 µM): 0.359; relative viability (SW 1573; first compound 0.2 µM): 1.36; relative viability (SW 1573; first compound 0.6325 µM): 0.404; relative viability (SW 1573; first compound 2 µM): 0.777; relative viability (SW 1573; first compound 6.325 µM): 0.485; relative viability (SW 1573; first compound 20 µM): 0.0333; relative viability (NCI-H1915; first compound 0.2 µM): 1.12; relative viability (NCI-H1915; first compound 0.6325 µM): 0.958; relative viability (NCI-H1915; first compound 6.325 µM): 1.08; relative viability (NCI-H1915; first compound 20 µM): 1.05; relative viability (A-427; first compound 0.2 µM): 0.902; relative viability (A-427; first compound 0.6325 µM): 0.837; relative viability (A-427; first compound 2 µM): 0.895; relative viability (A-427; first compound 6.325 µM): 0.983; relative viability (A-427; first compound 20 µM): 0.953; relative viability (HARA; first compound 0.2 µM): 1; relative viability (HARA; first compound 0.6325 µM): 0.881; relative viability (HARA; first compound 6.325 µM): 0.742; relative viability (HARA; first compound 20 µM): 0.704; relative viability (RERF-LC-KJ; first compound 0.2 µM): 0.872; relative viability (RERF-LC-KJ; first compound 0.6325 µM): 0.878; relative viability (RERF-LC-KJ; first compound 2 µM): 0.922; relative viability (RERF-LC-KJ; first compound 6.325 µM): 0.957; relative viability (RERF-LC-KJ; first compound 20 µM): 0.819; relative viability (EKVX; first compound 0.2 µM): 0.988; relative viability (EKVX; first compound 0.6325 µM): 0.518; relative viability (EKVX; first compound 6.325 µM): 1.1; relative viability (EKVX; first compound 20 µM): 0.843; relative viability (BEN; first compound 0.2 µM): 0.653; relative viability (BEN; first compound 0.6325 µM): 0.586; relative viability (BEN; first compound 6.325 µM): 0.741; relative viability (BEN; first compound 20 µM): 0.954; relative viability (NCI-H1793; first compound 0.2 µM): 0.858; relative viability (NCI-H1793; first compound 0.6325 µM): 0.563; relative viability (NCI-H1793; first compound 6.325 µM): 0.846; relative viability (NCI-H1793; first compound 20 µM): 0.491; relative viability (COR-L23; first compound 0.2 µM): 1.23; relative viability (COR-L23; first compound 0.6325 µM): 0.956; relative viability (COR-L23; first compound 2 µM): 0.95; relative viability (COR-L23; first compound 6.325 µM): 1.06; relative viability (COR-L23; first compound 20 µM): 0.0732; relative viability (NCI-H838; first compound 0.2 µM): 1.23; relative viability (NCI-H838; first compound 0.6325 µM): 0.822; relative viability (NCI-H838; first compound 2 µM): 1.02; relative viability (NCI-H838; first compound 6.325 µM): 1.07; relative viability (NCI-H838; first compound 20 µM): 0.683; relative viability (NCI-H1650; first compound 0.2 µM): 1.45; relative viability (NCI-H1650; first compound 0.6325 µM): 1.03; relative viability (NCI-H1650; first compound 2 µM): 1.1; relative viability (NCI-H1650; first compound 6.325 µM): 0.924; relative viability (NCI-H1650; first compound 20 µM): 0.364; relative viability (NCI-H1666; first compound 0.2 µM): 0.959; relative viability (NCI-H1666; first compound 0.6325 µM): 0.906; relative viability (NCI-H1666; first compound 2 µM): 0.942; relative viability (NCI-H1666; first compound 6.325 µM): 0.952; relative viability (NCI-H1666; first compound 20 µM): 0.908
